Source: the NIST ThermoML archive (doi:10.1021/je060113j)

What was measured:
[1] = 101.33 kPa, Liquid; for viscosity: Capillary tube (Ostwald / Ubbelohde) method; for mass density: Pycnometric method; for speed of sound: Sing-around technique in a fixed-path interferometer
[2] = xn = mol fraction of the nth substance listed; details: 101 kPa, Liquid; for viscosity: Capillary tube (Ostwald / Ubbelohde) method; for mass density: Pycnometric method; for speed of sound: Sing-around technique in a fixed-path interferometer

C1COCCO1 [1,4-dioxane]
[1]
Details | mass density [kg/m3] | speed of sound [m/s] | viscosity [mPa·s]
298.15 K | 1027.3 | 1344 | 1.224
308.15 K | 1016 | – | 0.9268
318.15 K | 1005.6 | – | 0.7991

C1CCOC1 [tetrahydrofuran] + OCCO
[2], x2 = 0.5374
Details | mass density [kg/m3] | speed of sound [m/s] | viscosity [mPa·s]
298.15 K | 984.5 | 1436.8 | 2.509
308.15 K | 974.1 | – | 1.866
318.15 K | 964.9 | – | 1.558

OCCO [1,2-ethanediol] + CN(C)C=O
[2], x1 = 0.5408
Details | mass density [kg/m3] | speed of sound [m/s] | viscosity [mPa·s]
298.15 K | 1024.8 | 1584.4 | 3.065
308.15 K | 1016.8 | – | 2.453
318.15 K | 1008.2 | – | 1.96

C1CCOC1 [tetrahydrofuran]
[1]
Details | mass density [kg/m3] | speed of sound [m/s] | viscosity [mPa·s]
298.15 K | 880.7 | 1279 | 0.463
308.15 K | 871.2 | – | 0.4277
318.15 K | 861.4 | – | 0.3902

C[S+](C)[O-] [dimethyl sulfoxide]
[1]
Details | mass density [kg/m3] | speed of sound [m/s] | viscosity [mPa·s]
298.15 K | 1095.4 | 1493 | 2.042
308.15 K | 1085.9 | – | 1.568
318.15 K | 1076.7 | – | 1.485

OCCO [1,2-ethanediol] + C[S+](C)[O-]
[2], x1 = 0.5573
Details | mass density [kg/m3] | speed of sound [m/s] | viscosity [mPa·s]
298.15 K | 1108.5 | 1617.3 | 5.195
308.15 K | 1098.9 | – | 3.901
318.15 K | 1089.6 | – | 3.108

CN(C)C=O [dimethylformamide]
[1]
Details | mass density [kg/m3] | speed of sound [m/s] | viscosity [mPa·s]
298.15 K | 946.1 | 1465 | 0.8586
308.15 K | 939.9 | – | 0.7763
318.15 K | 931.6 | – | 0.7125

C1COCCO1 [1,4-dioxane] + OCCO
[2], x2 = 0.5867
Details | mass density [kg/m3] | speed of sound [m/s] | viscosity [mPa·s]
298.15 K | 1070.9 | 1519.2 | 4.386
308.15 K | 1060.4 | – | 3.36
318.15 K | 1050.9 | – | 2.661

O [water]
[1]
Details | mass density [kg/m3] | speed of sound [m/s] | viscosity [mPa·s]
298.15 K | – | 1498 | 0.8904
308.15 K | 994.1 | – | 0.7194
318.15 K | 990.3 | – | 0.596

OCCO [1,2-ethanediol]
[1]
Details | mass density [kg/m3] | speed of sound [m/s] | viscosity [mPa·s]
298.15 K | 1106.3 | 1666 | 16.39
308.15 K | – | – | 10.77
318.15 K | – | – | 7.703
